Reference: US20260274892A1, “MACROCYCLIC BROAD SPECTRUM ANTIBIOTICS” (RQx Pharmaceuticals, Inc., priority 2017, published 2026)

Columns and labels:
[1] = test system: Escherichia coli ATCC 25922; assay: Minimum inhibitory concentration (MIC), CLSI broth micro-dilution, E. coli; type: cell-based; conditions: Escherichia coli, ATCC25922, 22 h, Table 6, cation adjusted Mueller Hinton Broth + 0.002% Tween-80, 35° C.
In short: (§1)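 Antibacterial potency is measured as MIC by the CLSI broth dilution method. Bacteria at OD600 0.0005 in Tween-80-supplemented cation-adjusted Mueller Hinton broth face ten twofold compound dilutions for 22 h at 35° C.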

[2] = test system: Methicillin Resistant Staphylococcus aureus strain USA 200; assay: Minimum inhibitory concentration (MIC), CLSI broth micro-dilution, S. aureus; type: cell-based; conditions: Staphylococcus aureus, MRSA / USA200; Table 6; MRSA USA 200; cation adjusted Mueller Hinton Broth + 0.002% Tween-80; 35° C., 22 hours
In short: as §1

MIC [1] | MIC [2] | SMILES
0.19 µM | 0.047 µM | Cc1nc(-c2ccc3c(c2)OCCC32CC2)nc(C)c1C(=O)N[C@@H](CCN)C(=O)N(C)[C@@H]1C(=O)N[C@@H](C)C(=O)N[C@H](C(=O)NCC#N)Cc2ccc(OCCN)c(c2)-c2cc1ccc2OCCN (racemic) [Compound 285, rac-(8S,11S,14S)-3,18-bis(2-aminoethoxy)-N-(cyanomethyl)-11-methyl-14-[methyl-[rac-(2S)-4-amino-2-[(4,6-dimethyl-2-spiro[chromane-4,1′-cyclopropane]-7-yl-pyrimidine-5-carbonyl)amino]butanoyl]amino]-10,13-dioxo-9,12-diazatricyclo[13.3.1.12,6]icosa-1(18),2(20),3,5,15(19),16-hexaene-8-carboxamide]
1 µM | 0.065 µM | Cc1nc(Cc2ccc(C(C)(C)C)cc2)nc(C)c1C(=O)N[C@@H](CCN)C(=O)N(C)[C@@H]1C(=O)N[C@@H](C)C(=O)N[C@H](C(=O)NCC#N)Cc2ccc(OCCN)c(c2)-c2cc1ccc2OCCN (racemic) [Compound 287, rac-(8S,11S,14S)-3,18-bis(2-aminoethoxy)-N-(cyanomethyl)-11-methyl-14-[methyl-[rac-(2S)-4-amino-2-[[2-[(4-tert-butylphenyl)methyl]-4,6-dimethyl-pyrimidine-5-carbonyl]amino]butanoyl]amino]-10,13-dioxo-9,12-diazatricyclo[13.3.1.12,6]icosa-1(18),2(20),3,5,15(19),16-hexaene-8-carboxamide]
1.5 µM | 0.023 µM | Cc1nc(C(C)(C)c2ccc(C(C)(C)C)cc2)nc(C)c1C(=O)N[C@@H](CCN)C(=O)N(C)[C@@H]1C(=O)N[C@@H](C)C(=O)N[C@H](C(=O)NCC#N)Cc2ccc(OCCN)c(c2)-c2cc1ccc2OCCN (racemic) [Compound 288, rac-(8S,11S,14S)-3,18-bis(2-aminoethoxy)-N-(cyanomethyl)-11-methyl-14-[methyl-[rac-(2S)-4-amino-2-[[2-[1-(4-tert-butylphenyl)-1-methyl-ethyl]-4,6-dimethyl-pyrimidine-5-carbonyl]amino]butanoyl]amino]-10,13-dioxo-9,12-diazatricyclo[13.3.1.12,6]icosa-1(18),2(20),3,5,15(19),16-hexaene-8-carboxamide]
0.75 µM | 0.016 µM | Cc1nc(C(F)(F)c2ccc(C(C)(C)C)cc2)nc(C)c1C(=O)N[C@@H](CCN)C(=O)N(C)[C@@H]1C(=O)N[C@@H](C)C(=O)N[C@H](C(=O)NCC#N)Cc2ccc(OCCN)c(c2)-c2cc1ccc2OCCN (racemic) [Compound 289, rac-(8S,11S,14S)-3,18-bis(2-aminoethoxy)-N-(cyanomethyl)-11-methyl-14-[methyl-[rac-(2S)-4-amino-2-[[2-[(4-tert-butylphenyl)-difluoro-methyl]-4,6-dimethyl-pyrimidine-5-carbonyl]amino]butanoyl]amino]-10,13-dioxo-9,12-diazatricyclo[13.3.1.12,6]icosa-1(18),2(20),3,5,15(19),16-hexaene-8-carboxamide]
0.75 µM | 0.19 µM | Cc1nc(-c2ccc3c(c2)CCOC3(C)C)nc(C)c1C(=O)N[C@@H](CCN)C(=O)N(C)[C@@H]1C(=O)N[C@@H](C)C(=O)N[C@H](C(=O)NCC#N)Cc2ccc(OCCN)c(c2)-c2cc1ccc2OCCN (racemic) [Compound 290, rac-(8S,11S,14S)-3,18-bis(2-aminoethoxy)-N-(cyanomethyl)-11-methyl-14-[methyl-[rac-(2S)-4-amino-2-[[2-(1,1-dimethylisochroman-6-yl)-4,6-dimethyl-pyrimidine-5-carbonyl]amino]butanoyl]amino]-10,13-dioxo-9,12-diazatricyclo[13.3.1.12,6]icosa-1(18),2(20),3,5,15(19),16-hexaene-8-carboxamide]
0.19 µM | 0.031 µM | CCCC(F)(F)c1ccc(-c2nc(C)c(C(=O)N[C@@H](CCN)C(=O)N(C)[C@@H]3C(=O)N[C@@H](C)C(=O)N[C@H](C(=O)NCC#N)Cc4ccc(OCCN)c(c4)-c4cc3ccc4OCCN)c(C)n2)cc1 (racemic) [Compound 294, rac-(8S,11S,14S)-3,18-bis(2-aminoethoxy)-N-(cyanomethyl)-11-methyl-14-[methyl-[rac-(2S)-4-amino-2-[[2-[4-(1,1-difluorobutyl)phenyl]-4,6-dimethyl-pyrimidine-5-carbonyl]amino]butanoyl]amino]-10,13-dioxo-9,12-diazatricyclo[13.3.1.12,6]icosa-1(18),2(20),3,5,15(19),16-hexaene-8-carboxamide]
0.063 µM | 0.0078 µM | Cc1nc(C2=CCC(C(C)(C)C)CC2)nc(C)c1C(=O)N[C@@H](CCN)C(=O)N(C)[C@@H]1C(=O)N[C@@H](C)C(=O)N[C@H](C(=O)NCC#N)Cc2ccc(OCCN)c(c2)-c2cc1ccc2OCCN (mixture of isomers) [Compound 295, rac-(8S,11S,14S)-3,18-bis(2-aminoethoxy)-N-(cyanomethyl)-11-methyl-14-[methyl-[rac-(2S)-4-amino-2-[[2-(4-tert-butylcyclohexen-1-yl)-4,6-dimethyl-pyrimidine-5-carbonyl]amino]butanoyl]amino]-10,13-dioxo-9,12-diazatricyclo[13.3.1.12,6]icosa-1(18),2(20),3,5,15(19),16-hexaene-8-carboxamide]
0.13 µM | 0.016 µM | Cc1nc(-c2ccc(C(C)(C)C)cc2O)nc(C)c1C(=O)N[C@@H](CCN)C(=O)N(C)[C@@H]1C(=O)N[C@@H](C)C(=O)N[C@H](C(=O)NCC#N)Cc2ccc(OCCN)c(c2)-c2cc1ccc2OCCN (racemic) [Compound 298, rac-(8S,11S,14S)-3,18-bis(2-aminoethoxy)-N-(cyanomethyl)-11-methyl-14-[methyl-[rac-(2S)-4-amino-2-[[2-(4-tert-butyl-2-hydroxy-phenyl)-4,6-dimethyl-pyrimidine-5-carbonyl]amino]butanoyl]amino]-10,13-dioxo-9,12-diazatricyclo[13.3.1.12,6]icosa-1(18),2(20),3,5,15(19),16-hexaene-8-carboxamide]
0.25 µM | 0.031 µM | Cc1nc(-c2ccc(C3CC3)cc2)nc(C)c1C(=O)N[C@@H](CCN)C(=O)N(C)[C@@H]1C(=O)N[C@@H](C)C(=O)N[C@H](C(=O)NCC#N)Cc2ccc(OCCN)c(c2)-c2cc1ccc2OCCN (racemic) [Compound 300, rac-(8S,11S,14S)-3,18-bis(2-aminoethoxy)-N-(cyanomethyl)-11-methyl-14-[methyl-[rac-(2S)-4-amino-2-[[2-(4-cyclopropylphenyl)-4,6-dimethyl-pyrimidine-5-carbonyl]amino]butanoyl]amino]-10,13-dioxo-9,12-diazatricyclo[13.3.1.12,6]icosa-1(18),2(20),3,5,15(19),16-hexaene-8-carboxamide]
0.094 µM | 0.016 µM | Cc1nc(-c2ccc(C3CCC3)cc2)nc(C)c1C(=O)N[C@@H](CCN)C(=O)N(C)[C@@H]1C(=O)N[C@@H](C)C(=O)N[C@H](C(=O)NCC#N)Cc2ccc(OCCN)c(c2)-c2cc1ccc2OCCN (racemic) [Compound 301, rac-(8S,11S,14S)-3,18-bis(2-aminoethoxy)-N-(cyanomethyl)-11-methyl-14-[methyl-[rac-(2S)-4-amino-2-[[2-(4-cyclobutylphenyl)-4,6-dimethyl-pyrimidine-5-carbonyl]amino]butanoyl]amino]-10,13-dioxo-9,12-diazatricyclo[13.3.1.12,6]icosa-1(18),2(20),3,5,15(19),16-hexaene-8-carboxamide]
14 µM | 0.84 µM | Cc1nc(C#CC(C)(C)C)nc(C)c1C(=O)N[C@@H](CCN)C(=O)N(C)[C@@H]1C(=O)N[C@@H](C)C(=O)N[C@H](C(=O)NCC#N)Cc2ccc(OCCN)c(c2)-c2cc1ccc2OCCN (racemic) [Compound 306, rac-(8S,11S,14S)-3,18-bis(2-aminoethoxy)-N-(cyanomethyl)-11-methyl-14-[methyl-[rac-(2S)-4-amino-2-[[2-(3,3-dimethylbut-1-ynyl)-4,6-dimethyl-pyrimidine-5-carbonyl]amino]butanoyl]amino]-10,13-dioxo-9,12-diazatricyclo[13.3.1.12,6]icosa-1(18),2(20),3,5,15(19),16-hexaene-8-carboxamide]
0.2 µM | 0.033 µM | CCc1ccc(C#Cc2nc(C)c(C(=O)N[C@@H](CCN)C(=O)N(C)[C@@H]3C(=O)N[C@@H](C)C(=O)N[C@H](C(=O)NCC#N)Cc4ccc(OCCN)c(c4)-c4cc3ccc4OCCN)c(C)n2)cc1 (racemic) [Compound 307, rac-(8S,11S,14S)-3,18-bis(2-aminoethoxy)-N-(cyanomethyl)-11-methyl-14-[methyl-[rac-(2S)-4-amino-2-[[2-[2-(4-ethylphenyl)ethynyl]-4,6-dimethyl-pyrimidine-5-carbonyl]amino]butanoyl]amino]-10,13-dioxo-9,12-diazatricyclo[13.3.1.12,6]icosa-1(18),2(20),3,5,15(19),16-hexaene-8-carboxamide]
0.096 µM | 0.012 µM | CCCCc1ccc(C#Cc2nc(C)c(C(=O)N[C@@H](CCN)C(=O)N(C)[C@@H]3C(=O)N[C@@H](C)C(=O)N[C@H](C(=O)NCC#N)Cc4ccc(OCCN)c(c4)-c4cc3ccc4OCCN)c(C)n2)cc1 (racemic) [Compound 308, rac-(8S,11S,14S)-3,18-bis(2-aminoethoxy)-N-(cyanomethyl)-11-methyl-14-[methyl-[rac-(2S)-4-amino-2-[[2-[2-(4-butylphenyl)ethynyl]-4,6-dimethyl-pyrimidine-5-carbonyl]amino]butanoyl]amino]-10,13-dioxo-9,12-diazatricyclo[13.3.1.12,6]icosa-1(18),2(20),3,5,15(19),16-hexaene-8-carboxamide]
